Reference: patent publication US20250120964A1, “USE OF NOVEL MOLECULAR GLUE” (ASTROGEN, INC., priority 2023, published 2025)
pIC50: −log10 of the molar value.

What was measured:
[1] = test system: 83NS (GSC cell line derived from a GBM patient) orthotopic glioblastoma model; experiment: In vivo orthotopic glioblastoma xenograft model, survival; conditions: mice, oral daily 50 mg/kg for 4 weeks, 83NS orthotopic model
Description: An in vivo experiment was carried out using a xenograft model. Specifically, 83NS (GSC cell line derived from a GBM patient) was used to construct an orthotopic glioblastoma model in such a way that 1×10^4 cells were injected into the brain of each of mice (n=16) at a volume of 3 μl. Thereafter, a vehicle was administered to mice (n=8), and AST-DT-218 was orally administered daily to the remaining mice (n=8) at a concentration of 50 mg/kg for 4 weeks, […]. On the other hand, the drug to be administered was changed to AST-DT-135, and the same experiment was carried out.

[2] = test system: U87 brain cancer cell line; experiment: In vitro cell survival assay (nuclear staining), U87; type: cell-based; conditions: for pIC50: U87, 48 hours treatment, cell number by nuclear staining
Description: (§1) An in vitro experiment was carried out to check whether the compound (AST-DT-218) prepared in Example 2 was effective in the cell death in the brain cancer. First, brain cancer cell lines (U87, U373, and SK-N-SH) were cultured in the respective flasks to prepare cells that had reached the logarithmic growth stage. Then, the cells were washed with PBS, harvested with trypsin, centrifuged to adjust the cell density, and then resuspended in a suitable culture medium, and the cells were dispensed into a 96-well plate. The culture was carried out until the cells were attached to the plate and stabilized. AST-DT-218 and temozolomide, a conventional therapeutic agent for glioblastoma, were prepared and diluted at various concentrations (½ dilution from the highest concentration of 50 μM, 10-point). The cells in the well of the plate were treated for 48 hours with each compound at individual concentrations, and the cells were cultured to react with the compound. After the culture was completed, the number of cells was measured through the nuclear staining of the cells to evaluate the cell survival rate (FIG. 1), and IC50 was calculated (Table 2).

[3] = test system: U373 brain cancer cell line; experiment: In vitro cell survival assay (nuclear staining), U373; type: cell-based; conditions: Homo sapiens, U373 MG; U373, 48 hours treatment, cell number by nuclear staining
Description: as §1

[4] = test system: SK-N-SH brain cancer cell line; experiment: In vitro cell survival assay (nuclear staining), SK-N-SH; type: cell-based; conditions: Homo sapiens, 48 hours treatment, cell number by nuclear staining
Description: as §1

U87 cells [5] = experiment: Colony-formation assay; type: cell-based; conditions: cultured about two weeks, crystal violet
Description: U87 cells, which are a brain cancer cell line, were cultured, the cells were separated using Trypsin-EDTA when the cells grew sufficiently, the cells were distributed uniformly on a 12-well plate, and the cells were treated with AST-DT-218 in each well after being attached. Then, the cells were cultured for about two weeks in an environment of 37° C. and about 5% CO2. When the cultivation was completed, the cells were fixed. Then, the colonies were stained with a crystal violet solution, and after the staining, the colonies were washed with PBS to remove background staining. A microscope was used to observe the colonies, and the number and size of the colonies were measured and quantified (FIG. 2).

U87 cells [6] = experiment: Western blotting of gamma-H2AX and cleaved PARP; type: cell-based
Description: The following experiments were carried out to check whether AST-DT-218 induces DNA fragmentation and apoptosis. First, U87 cells were cultured, the cells were separated using Trypsin-EDTA when the cells grew sufficiently, the cells were plated and distributed uniformly on a 12-well plate, and the cells were treated with AST-DT-218 after being attached. Subsequently, the cells were washed with PBS, proteins were extracted using a cell lysis buffer, and the cell extract was centrifugated to collect the supernatant. Then, protein samples having the same concentration were loaded onto an SDS-PAGE gel and subjected to electrophoresis, and the proteins were transferred to a PVDF membrane. After blocking the membrane with 5% skim milk (or BSA), each of the antibodies against γ-H2AX (DNA damage marker), cleaved PARP (apoptosis marker), and beta-actin was treated at 4° C. for 16 hours. The Western blotting results were analyzed to evaluate the expression levels of gamma-H2AX and cleaved PARP. Beta-actin was used as a loading control to check the consistency of the protein loading.

U87 cells [7] = experiment: Propidium iodide (PI) apoptosis assay; type: cell-based; conditions: flow cytometry
Description: A PI apoptosis assay was carried out to check whether AST-DT-218 induces DNA fragmentation and apoptosis as in Experimental Example 3-1. A PI detection kit was prepared, propidium iodide (PI) was added to the U87 cells that had been treated with AST-DT-218, and a reaction was allowed to proceed at room temperature in a dark room for 10 minutes. Then, PI fluorescence was measured using a flow cytometry apparatus (FIG. 4).

U87 cells [8] = experiment: Measurement of sub G1 population (flow cytometry); type: cell-based; conditions: 48 hours, 0.5 μM and 1 μM
Description: The sub G1 population was measured to check whether AST-DT-218 induces DNA fragmentation and apoptosis as in Experimental Example 3-1. […] The value of the sub G1 population of cells was measured using a flow cytometry apparatus (FIG. 5).

[9] = test system: U87 glioblastoma-derived brain cancer cell line; experiment: Dose response curve (DRC), cell survival, U87; type: cell-based
Description: (§2) The DRC was created in order to check whether AST-DT-218 is effective in the cell death in the brain cancer. First, glioblastoma-derived brain cancer cell lines (U87 and U373) were cultured in the respective flasks to prepare cells that had reached the logarithmic growth stage. Then, the cells were washed with PBS, harvested with trypsin, centrifuged to adjust the cell density, and then resuspended in a suitable culture medium, and the cells were dispensed into a 96-well plate. Cells were cultured until they were attached to the plate and stabilized, AST-DT-218 and a control group (lenalidomide, pomalidomide) were prepared and diluted to a variety of concentrations (½ dilution from the highest concentration of 10 μM, 10-point). The cells in the well of the plate were treated for 48 hours with each compound at individual concentrations, and the cells were cultured to react with the compound. After the culture was completed, the number of cells was measured through the nuclear staining of the cells to evaluate the cell survival rate. The cell survival rate at each concentration was measured to collect data. Then, the DRC was created (FIG. 6 and FIG. 7), and IC50 was calculated (Table 3).

[10] = test system: U373 glioblastoma-derived brain cancer cell line; experiment: Dose response curve (DRC), cell survival, U373; type: cell-based; conditions: Homo sapiens, U373 MG; Glioblastoma U373, 48 hours, highest concentration 10 μM; read-out: IC50 of AST-DT-218, U373
Description: as §2

CCC[C@H](C)Nc1cccc2c1C(=O)N(C1CCC(=O)NC1=O)C2=O (stereo partly drawn) [AST-DT-135, 2-(2,6-dioxopiperidin-3-yl)-4-(((S)-pentan-2-yl)amino)isoindoline-1,3-dione]
survival rate (Kaplan-Meier analysis) versus vehicle [1]: significantly increased survival rate

COc1ccc([C@@H](C)Nc2cccc3c2C(=O)N(C2CCC(=O)NC2=O)C3=O)cc1 (stereo partly drawn) [AST-DT-218, 2-(2,6-dioxopiperidin-3-yl)-4-(((R)-1-(4-methoxyphenyl)ethyl)amino)isoindoline-1,3-dione]
pIC50 [2]: 5.47
cell death efficacy compared with temozolomide ([2]; brain cancer cell lines U87, U373, SK-N-SH, summary of Table 2): efficacy superior to temozolomide
pIC50 [3]: 6.15
pIC50 [4]: 6.62
formation of colonies (U87 cells [5]): significantly reduced the formation of colonies
DNA fragmentation and apoptosis (expression of gamma-H2AX and cleaved PARP) (U87 cells [6]): induced DNA fragmentation and apoptosis
DNA fragmentation and apoptosis (PI fluorescence) (U87 cells [7]): induced DNA fragmentation and apoptosis
value of the sub G1 population (U87 cells [8]): increased
pIC50 ([9]; Glioblastoma U87, 48 hours, highest concentration 10 μM, read-out: IC50 of AST-DT-218, U87): 5.47
cell death of brain cancer cells compared with lenalidomide and pomalidomide ([9]; U87 and U373, DRC): effective in the cell death of the brain cancer cells
pIC50 [10]: 5.91
survival rate (Kaplan-Meier analysis) versus vehicle [1]: significantly increased survival rate

Cn1nnc2c(C(N)=O)ncn2c1=O [Temozolomide, temozolomide, reference compound]
pIC50 [2]: 3.54
pIC50 [4]: 4.61
